# From ChEMBL document CHEMBL1201862, “PubChem BioAssay data set” (2004)
# The source made the active and inactive calls.
# Tests used:
# INS1 = assay: beta cell apoptosis inhibitors, cytokine rescue, dose response, luminescence, retest (AID 449756); assay type: functional, cell-based; conditions: Rattus norvegicus;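 note: cell death triggered by IL-1 beta plus TNF-alpha plus IFN-gamma mixture; protective hits raise ATP signal compared with cytokine alone wells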
# HEK293 [1] = assay: HEK cell cytotoxicity by LDH release, dose response, cytotoxicity control for IDE activator project, fluorescence, HEK cells (AID 588440); assay type: functional, cell-based; conditions: Homo sapiens;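 note: cytotoxicity by LDH release measuring loss of membrane integrity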
# [2] = target: T1, Ubiquitin-conjugating enzyme E2 N (Homo sapiens, UniProt P61088); assay type: functional;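 note: Dose-response confirmation in a TR-FRET assay detecting UBC13-driven polyubiquitin chain formation, inhibition measured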
# T1 sequence (P61088 whole entry): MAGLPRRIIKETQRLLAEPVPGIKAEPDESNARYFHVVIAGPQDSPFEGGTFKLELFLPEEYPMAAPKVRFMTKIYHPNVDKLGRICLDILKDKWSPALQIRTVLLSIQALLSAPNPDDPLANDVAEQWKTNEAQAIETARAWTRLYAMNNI
# HEK293 [3] = assay: optical interference in Abeta FP readout, dose response, artefact control for IDE activator project, biochemical, fluorescence polarization (AID 588442); assay type: functional, cell-based; conditions: Homo sapiens
# [4] = Luminescence Cell-Based Dose Retest to Confirm Inhibitors of Cancer Stem Cells. [Related pubchem assays (depositor defined):AID2717, AID2721]; assay type: functional; conditions: Homo sapiens
# Insulin-degrading enzyme [5] = target: T2, Insulin-degrading enzyme (Homo sapiens, UniProt P14735); assay: activators of endogenous IDE in HEK cells, dose response, cell-based, fluorescence polarization (AID 588439); assay type: functional
# T2 sequence (P14735 whole entry): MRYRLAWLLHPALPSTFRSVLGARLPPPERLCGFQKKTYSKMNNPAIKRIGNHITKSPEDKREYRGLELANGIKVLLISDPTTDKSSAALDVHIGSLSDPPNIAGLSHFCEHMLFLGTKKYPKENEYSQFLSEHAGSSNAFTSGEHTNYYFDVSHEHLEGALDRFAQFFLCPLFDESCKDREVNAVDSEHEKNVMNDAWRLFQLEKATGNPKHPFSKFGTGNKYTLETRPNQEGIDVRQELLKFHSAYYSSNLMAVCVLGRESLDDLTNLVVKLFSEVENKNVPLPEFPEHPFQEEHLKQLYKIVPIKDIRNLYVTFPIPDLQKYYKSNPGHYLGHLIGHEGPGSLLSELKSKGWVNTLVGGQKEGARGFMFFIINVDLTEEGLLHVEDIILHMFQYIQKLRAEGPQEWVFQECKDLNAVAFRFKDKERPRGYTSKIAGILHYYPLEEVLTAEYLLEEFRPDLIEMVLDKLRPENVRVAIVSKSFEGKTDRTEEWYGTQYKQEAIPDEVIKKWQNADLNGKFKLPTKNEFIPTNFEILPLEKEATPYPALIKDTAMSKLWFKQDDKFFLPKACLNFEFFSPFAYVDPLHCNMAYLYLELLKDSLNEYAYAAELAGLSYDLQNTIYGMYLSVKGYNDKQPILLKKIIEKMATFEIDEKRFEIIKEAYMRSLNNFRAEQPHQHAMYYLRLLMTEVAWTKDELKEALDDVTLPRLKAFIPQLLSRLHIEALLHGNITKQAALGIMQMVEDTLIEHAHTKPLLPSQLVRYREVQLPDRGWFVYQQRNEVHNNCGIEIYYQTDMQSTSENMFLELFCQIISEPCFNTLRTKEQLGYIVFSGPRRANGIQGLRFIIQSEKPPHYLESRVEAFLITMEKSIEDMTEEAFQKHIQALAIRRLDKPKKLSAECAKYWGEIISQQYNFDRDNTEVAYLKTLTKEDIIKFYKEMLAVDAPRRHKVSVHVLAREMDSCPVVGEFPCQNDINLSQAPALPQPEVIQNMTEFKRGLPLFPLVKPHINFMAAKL
# Insulin-degrading enzyme [6] = target: T2, Insulin-degrading enzyme; assay: activators of recombinant IDE enzyme, dose response, counter-screen for IDE activator project, biochemical, fluorescence polarization (AID 588681)
# [7] = target: T3, Microphthalmia-associated transcription factor (Homo sapiens, UniProt O75030); assay: TRPM1 promoter luciferase signal decrease, dose response, MITF inhibitor project, cell-based, SK-MEL-5, cherry-picked, set 3 (AID 493073); assay type: functional
# T3 sequence (O75030 whole entry): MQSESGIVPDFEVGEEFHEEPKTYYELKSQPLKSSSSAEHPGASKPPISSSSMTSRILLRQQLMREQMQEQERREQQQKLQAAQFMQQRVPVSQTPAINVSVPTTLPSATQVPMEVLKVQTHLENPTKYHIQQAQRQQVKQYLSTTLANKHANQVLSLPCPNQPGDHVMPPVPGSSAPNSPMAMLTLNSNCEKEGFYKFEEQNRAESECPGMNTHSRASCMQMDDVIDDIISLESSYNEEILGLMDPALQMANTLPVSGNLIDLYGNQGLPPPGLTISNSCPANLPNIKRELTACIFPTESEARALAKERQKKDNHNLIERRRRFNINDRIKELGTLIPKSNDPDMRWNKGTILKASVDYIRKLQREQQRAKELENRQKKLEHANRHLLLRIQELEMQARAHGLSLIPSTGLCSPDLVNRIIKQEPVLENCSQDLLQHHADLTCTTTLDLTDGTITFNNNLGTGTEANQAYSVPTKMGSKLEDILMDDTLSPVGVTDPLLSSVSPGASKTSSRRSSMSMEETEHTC
# Vero [8] = assay: cells; assay type: functional; conditions: Chlorocebus sabaeus
# Vero [9] = assay: cells; assay type: functional, cell-based; conditions: Chlorocebus sabaeus
# [10] = target: T4, Probable nicotinate-nucleotide adenylyltransferase (Staphylococcus aureus (strain N315), UniProt P65502); assay type: functional, Staphylococcus aureus subsp. aureus N315;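 for IC50 Mean: confirmatory dose-response retesting of NadD inhibitor hits first found in an ultra-high-throughput screen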
# T4 sequence (P65502 whole entry): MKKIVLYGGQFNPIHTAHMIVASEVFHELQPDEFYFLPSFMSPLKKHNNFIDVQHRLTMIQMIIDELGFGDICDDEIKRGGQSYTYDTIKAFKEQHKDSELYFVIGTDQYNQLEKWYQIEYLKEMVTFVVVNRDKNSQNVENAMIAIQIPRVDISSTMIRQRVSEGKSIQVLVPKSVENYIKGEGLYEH
# [11] = target: T4, Probable nicotinate-nucleotide adenylyltransferase; assay type: functional, Staphylococcus aureus subsp. aureus N315; conditions: read-out: IC50_Mean
# Vero [12] = assay: Vero cell cytotoxicity, cytotoxicity control for flavivirus capping enzyme inhibitors (AID 588742); assay type: functional; conditions: Chlorocebus sabaeus
# [13] = target: T5, Low molecular weight phosphotyrosine protein phosphatase (Homo sapiens, UniProt P24666); assay type: functional; conditions: read-out: IC50_Mean;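 note: Dose-response confirmation assay measuring inhibition of LMPTP enzyme activity by fluorescence intensity read-out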
# T5 sequence (P24666 whole entry): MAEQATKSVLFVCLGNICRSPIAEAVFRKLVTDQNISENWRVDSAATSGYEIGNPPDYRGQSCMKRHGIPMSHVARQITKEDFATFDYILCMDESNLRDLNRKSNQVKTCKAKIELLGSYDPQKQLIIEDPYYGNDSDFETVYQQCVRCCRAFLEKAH
# [14] = ADAM10 inhibitors, peptide cleavage, dose response, biochemical, QFRET (AID 743254);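 note: ADAM10 enzyme with the DM2 quenched FRET peptide as substrate; EDANS fluorescence gain as the protease cuts the substrate; inhibitor potency against ADAM10 proteolytic activity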
# [15] = target: Heat shock protein HSP 90-alpha (Homo sapiens, UniProt P07900); assay type: functional, organism-based
# [16] = target: Disintegrin and metalloproteinase domain-containing protein 17 (Homo sapiens, UniProt P78536); assay: ADAM17 protease inhibitors, dose response, counter-screen for ADAM10 exosite inhibitor project, biochemical, quenched FRET substrate (AID 743253)
# Chain of Disintegrin and metalloproteinase domain-containing protein 17 (P78536 whole entry, the tested form may be a part): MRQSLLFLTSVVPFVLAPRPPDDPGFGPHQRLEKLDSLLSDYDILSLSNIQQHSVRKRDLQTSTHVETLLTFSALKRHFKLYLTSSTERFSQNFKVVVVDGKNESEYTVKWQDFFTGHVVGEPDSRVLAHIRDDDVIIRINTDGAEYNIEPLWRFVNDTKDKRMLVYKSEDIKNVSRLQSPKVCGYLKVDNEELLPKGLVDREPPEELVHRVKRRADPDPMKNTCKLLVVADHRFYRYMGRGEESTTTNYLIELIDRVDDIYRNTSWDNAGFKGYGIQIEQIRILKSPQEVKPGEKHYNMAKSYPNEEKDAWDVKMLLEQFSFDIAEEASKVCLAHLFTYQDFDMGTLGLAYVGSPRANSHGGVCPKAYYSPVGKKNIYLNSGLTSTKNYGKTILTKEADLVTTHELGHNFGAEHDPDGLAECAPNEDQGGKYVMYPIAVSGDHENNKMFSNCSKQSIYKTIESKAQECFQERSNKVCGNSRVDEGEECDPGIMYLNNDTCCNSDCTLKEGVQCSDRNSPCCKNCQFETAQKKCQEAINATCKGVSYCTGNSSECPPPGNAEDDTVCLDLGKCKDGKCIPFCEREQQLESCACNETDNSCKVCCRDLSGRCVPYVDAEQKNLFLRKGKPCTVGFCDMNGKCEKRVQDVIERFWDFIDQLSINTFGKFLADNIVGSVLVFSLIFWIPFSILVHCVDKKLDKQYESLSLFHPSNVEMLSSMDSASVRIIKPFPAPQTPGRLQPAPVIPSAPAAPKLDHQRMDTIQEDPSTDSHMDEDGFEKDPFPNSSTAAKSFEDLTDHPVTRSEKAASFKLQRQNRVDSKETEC
# [17] = control 3'UTR Renilla luciferase suppression, dose response, counter-screen for Shn3 inhibitor project, cell-based, Clone20-Shn3RL, cherry-picked (AID 624133); assay type: functional
# [18] = HepG2 cell cytotoxicity, dose response, cytotoxicity control for Shn3 inhibitor project, CellTiter-Glo, cherry-picked (AID 624134); assay type: functional, cell-based
# Fatty acid synthase [19] = target: T6, Fatty acid synthase (Homo sapiens, UniProt P49327); assay: FAS thioesterase domain inhibitors, dose response, biochemical, kinetic fluorescence intensity (AID 624326); assay type: functional;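 note: rate of fluorescence rise from hydrolysis of a fluorogenic O-methyl fluorescein ester substrate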
# T6 sequence (P49327 whole entry, the tested form may be a part): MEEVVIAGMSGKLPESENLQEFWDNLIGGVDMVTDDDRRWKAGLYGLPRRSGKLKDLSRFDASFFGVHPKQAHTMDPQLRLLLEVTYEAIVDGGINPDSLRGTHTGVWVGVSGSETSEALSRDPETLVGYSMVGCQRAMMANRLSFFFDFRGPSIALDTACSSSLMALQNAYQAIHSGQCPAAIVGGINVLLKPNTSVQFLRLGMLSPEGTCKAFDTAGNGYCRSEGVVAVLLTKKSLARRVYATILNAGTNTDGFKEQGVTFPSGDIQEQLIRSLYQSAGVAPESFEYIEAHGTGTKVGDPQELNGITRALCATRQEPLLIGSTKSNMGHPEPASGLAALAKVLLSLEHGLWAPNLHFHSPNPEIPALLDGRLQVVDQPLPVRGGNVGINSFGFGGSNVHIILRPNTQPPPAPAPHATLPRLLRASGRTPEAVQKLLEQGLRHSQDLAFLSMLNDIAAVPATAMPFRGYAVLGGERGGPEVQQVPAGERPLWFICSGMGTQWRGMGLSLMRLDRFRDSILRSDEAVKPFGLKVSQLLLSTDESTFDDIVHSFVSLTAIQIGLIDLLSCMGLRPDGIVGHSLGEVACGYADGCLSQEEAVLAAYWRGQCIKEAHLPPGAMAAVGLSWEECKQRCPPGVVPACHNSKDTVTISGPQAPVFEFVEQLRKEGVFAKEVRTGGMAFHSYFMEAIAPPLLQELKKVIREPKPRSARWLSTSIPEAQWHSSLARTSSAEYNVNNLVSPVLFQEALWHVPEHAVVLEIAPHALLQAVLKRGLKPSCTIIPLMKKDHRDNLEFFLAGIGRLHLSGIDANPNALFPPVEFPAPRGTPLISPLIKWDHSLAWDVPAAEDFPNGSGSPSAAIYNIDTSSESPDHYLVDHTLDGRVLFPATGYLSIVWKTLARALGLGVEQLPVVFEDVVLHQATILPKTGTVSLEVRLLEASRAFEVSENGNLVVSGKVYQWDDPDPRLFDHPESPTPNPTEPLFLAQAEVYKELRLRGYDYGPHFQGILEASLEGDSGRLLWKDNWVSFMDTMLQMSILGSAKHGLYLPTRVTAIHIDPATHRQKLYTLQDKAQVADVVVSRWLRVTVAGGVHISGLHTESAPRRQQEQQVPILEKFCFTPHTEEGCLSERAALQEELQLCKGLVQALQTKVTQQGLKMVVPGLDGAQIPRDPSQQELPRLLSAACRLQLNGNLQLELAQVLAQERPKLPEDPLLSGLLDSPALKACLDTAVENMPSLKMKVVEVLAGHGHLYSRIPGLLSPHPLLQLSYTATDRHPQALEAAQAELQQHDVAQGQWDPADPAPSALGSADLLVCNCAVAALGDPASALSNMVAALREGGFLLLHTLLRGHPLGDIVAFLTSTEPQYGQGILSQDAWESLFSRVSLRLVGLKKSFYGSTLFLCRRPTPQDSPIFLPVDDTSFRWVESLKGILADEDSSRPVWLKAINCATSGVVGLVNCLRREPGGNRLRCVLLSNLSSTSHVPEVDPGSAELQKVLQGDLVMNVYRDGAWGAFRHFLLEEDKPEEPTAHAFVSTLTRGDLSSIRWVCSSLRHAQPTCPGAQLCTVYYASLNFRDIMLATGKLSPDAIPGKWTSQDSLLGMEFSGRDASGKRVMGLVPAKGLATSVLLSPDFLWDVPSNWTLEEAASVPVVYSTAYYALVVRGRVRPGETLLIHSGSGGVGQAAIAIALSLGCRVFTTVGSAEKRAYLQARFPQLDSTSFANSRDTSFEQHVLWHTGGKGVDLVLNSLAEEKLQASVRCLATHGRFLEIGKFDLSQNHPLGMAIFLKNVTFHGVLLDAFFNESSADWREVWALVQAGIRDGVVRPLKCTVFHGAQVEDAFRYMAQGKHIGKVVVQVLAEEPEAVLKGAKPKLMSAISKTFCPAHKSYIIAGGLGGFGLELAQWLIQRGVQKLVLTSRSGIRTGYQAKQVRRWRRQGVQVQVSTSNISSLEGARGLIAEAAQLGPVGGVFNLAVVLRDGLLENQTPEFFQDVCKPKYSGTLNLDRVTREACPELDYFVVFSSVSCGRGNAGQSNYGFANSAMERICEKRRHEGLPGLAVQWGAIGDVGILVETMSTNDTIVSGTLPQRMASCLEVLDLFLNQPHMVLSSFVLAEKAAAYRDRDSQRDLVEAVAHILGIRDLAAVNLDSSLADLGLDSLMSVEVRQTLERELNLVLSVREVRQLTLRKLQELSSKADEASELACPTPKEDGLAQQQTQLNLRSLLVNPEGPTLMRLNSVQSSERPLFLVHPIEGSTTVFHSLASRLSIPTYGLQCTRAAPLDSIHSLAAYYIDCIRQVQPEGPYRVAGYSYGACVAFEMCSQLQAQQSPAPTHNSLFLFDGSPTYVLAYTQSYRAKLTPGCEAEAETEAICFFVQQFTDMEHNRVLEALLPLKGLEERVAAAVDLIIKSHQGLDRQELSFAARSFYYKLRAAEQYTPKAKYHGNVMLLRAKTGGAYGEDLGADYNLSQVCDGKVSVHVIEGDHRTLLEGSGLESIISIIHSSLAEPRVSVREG
# Fatty acid synthase [20] = target: T6, Fatty acid synthase; assay: FAS thioesterase domain inhibitors, dose response, biochemical, endpoint fluorescence intensity, uHTS hits (AID 624327); assay type: functional;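 note: fluorescence from hydrolysis of an O-methyl fluorescein acyl ester substrate by the enzyme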
# [21] = Shn3 3'UTR reporter inhibitors, dose response, cell-based, Clone20 osteoblasts, firefly luciferase, cherry-picked (AID 624132); assay type: functional;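 note: firefly luciferase luminescence from reporter carrying the Shn3 3'UTR in osteoblasts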
# [22] = target: T7, Serine/threonine-protein phosphatase (Candida dubliniensis (strain CD36 / CBS 7987 / NCPF 3949 / NRRLY-17841) (Yeast), UniProt B9W6M3); assay: calcineurin pathway inhibitors in yeast reporter, dose response, S. cerevisiae, CDRE-lacZ, luminescence, secondary (AID 2388); assay type: functional, cell-based;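 note: yeast reporter cells carrying a calcineurin-responsive lacZ construct stimulated with calcium chloride; luminescent beta-galactosidase reporter signal in whole cells rather than isolated phosphatase activity; potency for inhibition where a drop in reporter signal means calcineurin blockade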
# T7 sequence (B9W6M3 whole entry): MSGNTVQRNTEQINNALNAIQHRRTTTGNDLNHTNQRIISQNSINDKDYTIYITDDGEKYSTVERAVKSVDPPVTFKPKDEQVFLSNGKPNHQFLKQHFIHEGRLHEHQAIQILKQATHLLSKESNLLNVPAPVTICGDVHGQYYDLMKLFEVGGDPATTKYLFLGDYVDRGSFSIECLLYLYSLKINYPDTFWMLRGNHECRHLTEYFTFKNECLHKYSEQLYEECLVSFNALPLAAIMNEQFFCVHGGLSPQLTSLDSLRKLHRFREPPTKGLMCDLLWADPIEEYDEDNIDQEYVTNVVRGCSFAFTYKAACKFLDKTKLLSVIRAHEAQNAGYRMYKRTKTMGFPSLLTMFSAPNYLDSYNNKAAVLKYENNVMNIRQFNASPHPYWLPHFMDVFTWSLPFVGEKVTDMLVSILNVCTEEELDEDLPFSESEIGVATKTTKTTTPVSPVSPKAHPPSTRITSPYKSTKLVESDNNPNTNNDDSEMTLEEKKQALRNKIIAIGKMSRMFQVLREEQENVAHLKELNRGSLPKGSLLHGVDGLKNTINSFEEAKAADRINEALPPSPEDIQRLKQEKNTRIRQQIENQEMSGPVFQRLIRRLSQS
# [23] = target: ATP-dependent molecular chaperone HSP82 (Candida albicans (strain WO-1) (Yeast), UniProt C4YTQ8); assay: loss of DOC-induced GRE-beta-galactosidase reporter signal, dose response, Hsp90 inhibitor project, S. cerevisiae, luminescence (AID 2400); assay type: functional, cell-based;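 note: beta-galactosidase luminescence from glucocorticoid response element reporter as proxy for Hsp90 function; inhibitor potency where signal loss means Hsp90 inhibition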
# Chain of ATP-dependent molecular chaperone HSP82 (C4YTQ8 whole entry): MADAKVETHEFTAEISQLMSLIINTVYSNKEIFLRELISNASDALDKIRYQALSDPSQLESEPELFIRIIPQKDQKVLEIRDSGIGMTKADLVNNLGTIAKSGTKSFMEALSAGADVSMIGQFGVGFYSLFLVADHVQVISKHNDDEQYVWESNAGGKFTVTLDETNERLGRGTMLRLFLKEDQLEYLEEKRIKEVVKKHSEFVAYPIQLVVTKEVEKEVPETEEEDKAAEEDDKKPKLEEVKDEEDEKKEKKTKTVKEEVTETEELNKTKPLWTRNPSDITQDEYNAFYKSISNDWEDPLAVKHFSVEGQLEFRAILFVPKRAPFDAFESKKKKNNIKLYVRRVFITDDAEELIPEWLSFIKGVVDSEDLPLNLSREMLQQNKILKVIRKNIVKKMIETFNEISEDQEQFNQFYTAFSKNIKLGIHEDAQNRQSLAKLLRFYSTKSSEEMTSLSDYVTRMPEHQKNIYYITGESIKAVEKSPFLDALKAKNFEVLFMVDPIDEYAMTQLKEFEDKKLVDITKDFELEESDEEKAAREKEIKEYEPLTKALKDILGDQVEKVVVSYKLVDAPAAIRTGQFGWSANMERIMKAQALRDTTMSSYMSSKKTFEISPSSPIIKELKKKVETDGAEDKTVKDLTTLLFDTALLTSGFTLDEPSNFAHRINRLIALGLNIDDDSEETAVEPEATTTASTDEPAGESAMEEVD
# [24] = C. albicans growth with fluconazole, confirmation, fluorescence, retest (AID 2467); assay type: functional, cell-based
# [25] = NIH-3T3 fibroblast cytotoxicity, dose response, cytotoxicity control, cell-based, fluorescence, Alamar Blue, secondary assay (AID 2327); assay type: functional;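 note: NIH-3T3 mouse fibroblasts cultured with fluconazole at 8 µg/mL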
# [26] = system: Streptococcus sp. 'group A'; assay: growth inhibition of control SK(-) GAS strain, dose response, counter-screen for streptokinase expression inhibitor project, luminescence, kanamycin, BacTiterGlo, confirmation (AID 1900); assay type: functional, organism-based
# Streptococcus = assay: Group A Streptococcus viability loss, dose response, counter-screen for streptokinase expression inhibitor project, luminescence, BacTiterGlo (AID 1915); assay type: functional, organism-based;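 note: potency for reduction of bacterial viability or growth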
smiles,measurement,setting,value
COC(=O)C1=C(C)N(Cc2ccccc2)C(NCc2cccc(Cl)c2)=N[C@H]1c1cccc(F)c1,AC50,INS1,7.03 µM (active)
same,IC50,HEK293 [1],12.1 µM (inactive)
same,IC50,[2],> 20 µM (inactive)
same,EC50,HEK293 [3],> 56 µM (inactive)
same,AC50,[4],3.48 µM (active)
same,EC50,Insulin-degrading enzyme [5],25.2 µM (inactive)
same,EC50,Insulin-degrading enzyme [6],> 54.7 µM (inactive)
Cc1oc(-c2ccc(Cl)cc2)nc1CN1CCC(C(=O)NCCCN2CCCC(C)C2)CC1 (configuration not stated),AC50,[7],13.2 µM (active)
same,CC50,Vero [8],22.5 µM (active)
same,IC50,Vero [9],4.32 µM (active)
Oc1ccc(C[C@H]2CNC(=S)N2CC2CCCN2C[C@H](Cc2ccc(O)cc2)N2C[C@H](Cc3ccccc3)N(CC3CCCCC3)C2=S)cc1 (some centres not stated),IC50,[10],16.3 µM (active)
same,IC50,[11],22.1 µM (active)
COc1ccc(CNc2nc(NCc3ccc(OC)cc3)c3[nH]cnc3n2)cc1,CC50,Vero [12],> 40 µM (active)
O=C(Nc1ccncc1)c1cc2ccccc2cc1O,CC50,Vero [12],> 40 µM (active)
CN(C)c1ccc(C(=O)C=Cc2ccc([N+](=O)[O-])cc2)cc1,IC50,[13],80 µM (inactive)
CC1(C)C=Cc2c(ccc3c2OC[C@H](c2ccc(O)cc2O)C3)O1,IC50,[14],19.5 µM (inactive)
same,AC50,[15],7.45 µM (active)
same,IC50,HEK293 [1],22.1 µM (inactive)
same,EC50,HEK293 [3],> 54.7 µM (inactive)
same,AC50,[4],3.16 µM (active)
same,EC50,Insulin-degrading enzyme [5],> 54.7 µM (inactive)
same,IC50,[16],> 69.5 µM (inactive)
same,EC50,Insulin-degrading enzyme [6],> 54.7 µM (inactive)
O=C1C(F)=CC(COC(c2ccccc2)(c2ccccc2)c2ccccc2)OC1n1cc(F)c(=O)[nH]c1=O (configuration not stated),AC50,[17],2.42 µM (active)
same,AC50,[18],9.11 µM (active)
same,AC50,[15],2.6 µM (active)
same,IC50,Fatty acid synthase [19],8.13 µM (active)
same,IC50,Fatty acid synthase [20],7.69 µM (active)
same,CC50,Vero [8],6.83 µM (active)
same,IC50,Vero [9],12.1 µM (active)
same,AC50,[21],0.428 µM (active)
Cc1cc(=O)oc2cc(Oc3ccc([N+](=O)[O-])cc3[N+](=O)[O-])ccc12,EC50,[22],> 180 µM (inactive)
same,EC50,[23],> 160 µM (inactive)
same,EC50,[24],1.3 µM (active)
same,EC50,[25],35.9 µM (inconclusive)
CC[C@H]1OC(=O)[C@H](C)[C@@H](O[C@H]2C[C@@](C)(OC)[C@@H](O)[C@H](C)O2)[C@H](C)[C@@H](O[C@@H]2O[C@H](C)C[C@H](N(C)C)[C@H]2O)[C@](C)(O)C[C@@H](C)C(=O)[C@H](C)[C@@H](O)[C@]1(C)O [ERYTHROMYCIN],EC50,[26],< 0.06 µM (active)
same,EC50,Streptococcus,< 0.06 µM (active)
same,IC50,[13],47.1 µM (inactive)
CCOC(=O)/C=C/CN(C(=O)OC(C)(C)C)S(=O)(=O)N1CC=CC1,IC50,HEK293 [1],> 89.2 µM (inactive)
same,EC50,HEK293 [3],> 55.9 µM (inactive)
same,EC50,Insulin-degrading enzyme [5],> 54.7 µM (inactive)
same,EC50,Insulin-degrading enzyme [6],> 54.7 µM (inactive)
